# Results from patent US10369183B2, “Therapeutic compositions from jamaican bitter yam and methods of making and using same” (University of The West Indies, priority 2008, dated 2019).
# Marks after values point to notes of the source that are not given here.
# Legend:
# Format in all cases: in vivo, Wistar rats
# diabetic rats = assay: Lipid peroxidation (conjugated dienes, TBARS) in diabetic rats; settings: diabetic rats fed 1% of diet, 4 weeks, mean ± SEM
# Text: (§1) Experimental design for the animal studies: adult Wistar rats […] were divided into six groups (8 rats per group, average body weight 249.0±0.3 g) as follows: Group 1—healthy rats receiving normal diet (normal); Group 2—diabetic rats fed normal diet (diabetic); Group 3—diabetic rats fed sapogenin extract (as 1% of the diet); Group 4—diabetic rats fed diosgenin (as 1% of normal diet); Group 5—diabetic rats fed bitter yam (as 1% of diet); and Group 6 fed the bitter yam therapeutic product (BYTP—as 1% of the diet).
# (§2) The rats except the control group were made diabetic using standard procedures involving streptozotocin (60 mg/kg body weight in 0.05 M citrate buffer, pH 4.5) injection intraperitonally. The control group rats were injected with an equivalent amount of buffer (0.05 M citrate buffer, pH 4.5). The normal rat diet (PMI Feeds Inc., Lab diet #5001) was a marketed laboratory rodent diet recommended for rats, mice and hamsters with the approximate chemical composition: protein 23%, fat 4.5%, fiber 6.0%, ash 8.0% and carbohydrate 58.5%. Rats were housed in stainless steel cages in a room kept on a 12-hour light-dark cycle, and were allowed to have access to their respective diets and water freely. The cages were cleaned daily. Body weight change, faecal output and total food intake were recorded weekly. The rats were fed on their respective diets for 4 weeks and sacrificed by decapitation after an overnight fast. Blood was collected in oxalate/fluoride vacutainers. The intestine, kidney, liver and spleen were excised, weighed and frozen in liquid nitrogen and stored at −20° C. until required for analysis. A section of the jejunum was cut and stored in 10% buffered formalin.
# Lipid peroxidation assays were conducted using the procedure of Tappel and Zalkin, Arch Biochim Biophys, 80: 333-336 (1959). Concentration of conjugated dienes in the liver was determined using the method of Hu et al., J Nutr, 119: 1574-1582 (1989).
# Ca^2+ ATPase = assay: Intestinal Ca2+ ATPase activity in diabetic rats; settings: diabetic rats fed 1% of diet, mean ± SEM
# Procedure: (§3) Group 1—healthy rats receiving normal diet (normal); Group 2—diabetic rats fed normal diet (diabetic); […] Group 4—diabetic rats fed diosgenin (as 1% of normal diet); Group 5—diabetic rats fed bitter yam (as 1% of diet); and Group 6 fed the bitter yam therapeutic product (BYTP—as 1% of the diet). The rats except the control group were made diabetic using standard procedures involving streptozotocin (60 mg/kg body weight in 0.05 M citrate buffer, pH 4.5) injection intraperitonally. The control group rats were injected with an equivalent amount of buffer (0.05 M citrate buffer, pH 4.5). […] Rats were housed in stainless steel cages in a room kept on a 12-hour light-dark cycle, and were allowed to have access to their respective diets and water freely. The cages were cleaned daily. Body weight change, faecal output and total food intake were recorded weekly. The rats were fed on their respective diets for 4 weeks and sacrificed by decapitation after an overnight fast. Blood was collected in oxalate/fluoride vacutainers. The intestine, kidney, liver and spleen were excised, weighed and frozen in liquid nitrogen and stored at −20° C. until required for analysis. A section of the jejunum was cut and stored in 10% buffered formalin. Na^+/K^+ and Ca^+ ATPase activities were measured by the amount of inorganic phosphate released following incubation with disodium ATP and cations for the appropriate ATPase (see Bonting et al., Sodium-potassium activated adenosinetriphosphatase and cation transport, in Membranes and Ion Transport I, Bittar (Ed.). Wiley-Interscience, N.Y., pp. 257-363 (1970); and Bonting et al., Archives of Biochemistry and Biophysics 101: 47-55 (1963)). The inorganic phosphate was determined by the method of Fiske and Subarow, Journal of Biological Chemistry 66: 375-400 (1925).
# acid phosphatase = assay: Acid phosphatase activity of liver, kidney and spleen in diabetic rats; settings: diabetic rats fed 1% of diet, 4 weeks, mean ± SEM
# Text: as §1, §2
# Mg^2+ ATPase = assay: Intestinal Mg2+ ATPase activity in diabetic rats; settings: diabetic rats fed 1% of diet, mean ± SEM
# Na^+/K^+ ATPase = assay: Intestinal Na+/K+ ATPase activity in diabetic rats; settings: diabetic rats fed 1% of diet, mean ± SEM
# Procedure: as §3
# glucose-6-phosphatase = assay: Glucose-6-phosphatase activity in liver and kidneys of diabetic rats; settings: diabetic rats fed 1% of diet, mean ± SEM
# Text: as §1
# as §2, with “The rats were fed on their respective diets for 4 weeks and sacrificed by decapitation after an overnight fast. Blood was collected in oxalate/fluoride vacutainers. The intestine, kidney, liver and spleen were excised, weighed and frozen in liquid nitrogen and stored at −20° C. until required for analysis. A section of the jejunum was cut and stored in 10% buffered formalin.” left out
# aspartate transaminase = assay: Aspartate transaminase activity of liver, kidney and spleen in diabetic rats; settings: diabetic rats fed 1% of diet, 4 weeks, mean ± SEM
# Text: as §1, §2
# alanine transaminase = assay: Alanine transaminase activity of liver, kidney and spleen in diabetic rats; settings: diabetic rats fed 1% of diet, 4 weeks, mean ± SEM
# Text: as §1, §2
# maltase = assay: Intestinal maltase activity in diabetic rats; settings: diabetic rats fed 1% of diet, mean ± SEM
# Text: as §1, §2
smiles,measurement,setting,value
C[C@@H]1CC[C@@]2(OC1)O[C@H]1C[C@H]3[C@@H]4CC=C5C[C@@H](O)CC[C@]5(C)[C@H]4CC[C@]3(C)[C@H]1[C@@H]2C [diosgenin],Kidney TBARS,diabetic rats,61.7 ± 6.6^a nmol/g kidney
same,Liver TBARS,diabetic rats,18.1 ± 2.1^a nmol/g liver
same,Conjugated dienes,diabetic rats; liver,0.428 ± 0.082^a μmole/g liver
same,Specific activity of Ca^2+ ATPase from rat intestinal sections,Ca^2+ ATPase; Distal,13.1 ± 0.3^b nmol Pi/min/mg protein
same,Specific activity of Ca^2+ ATPase from rat intestinal sections,Ca^2+ ATPase; Mid,17.1 ± 0.4^c nmol Pi/min/mg protein
same,Specific activity of Ca^2+ ATPase from rat intestinal sections,Ca^2+ ATPase; Proximal,34.9 ± 0.6^a nmol Pi/min/mg protein
same,Acid phosphatase,acid phosphatase; kidney,27.3 ± 1.1^a mg PNP/min/mg protein × 10^−5
same,Acid phosphatase,acid phosphatase; liver,17.3 ± 0.9^a mg PNP/min/mg protein × 10^−5
same,Acid phosphatase,acid phosphatase; spleen,9.0 ± 0.8^b mg PNP/min/mg protein × 10^−5
same,Specific activity of Mg^2+ ATPase from rat intestinal sections,Mg^2+ ATPase; Distal,16.4 ± 0.6^a nmol Pi/min/mg protein
same,Specific activity of Mg^2+ ATPase from rat intestinal sections,Mg^2+ ATPase; Mid,22.1 ± 0.4^b nmol Pi/min/mg protein
same,Specific activity of Mg^2+ ATPase from rat intestinal sections,Mg^2+ ATPase; Proximal,27.8 ± 0.5^a nmol Pi/min/mg protein
same,Specific activity of Na^+/K^+ ATPase from rat intestinal sections,Na^+/K^+ ATPase; Distal,7.3 ± 0.1^c nmol Pi/min/mg protein
same,Specific activity of Na^+/K^+ ATPase from rat intestinal sections,Na^+/K^+ ATPase; Mid,9.5 ± 0.1^c nmol Pi/min/mg protein
same,Specific activity of Na^+/K^+ ATPase from rat intestinal sections,Na^+/K^+ ATPase; Proximal,12.8 ± 0.2^c nmol Pi/min/mg protein
same,"glucose-6-phosphatase activity, Kidney",glucose-6-phosphatase; kidney,11.0 ± 2.0^b μmole/min/mg protein × 10^−2
same,"glucose-6-phosphatase activity, Liver",glucose-6-phosphatase; liver,8.3 ± 1.0^a μmole/min/mg protein × 10^−2
same,Aspartate transaminase,aspartate transaminase; kidney,5.5 ± 0.6^bc mg pyr/min/mg protein × 10^−4
same,Aspartate transaminase,aspartate transaminase; liver,8.6 ± 0.7^ab mg pyr/min/mg protein × 10^−4
same,Aspartate transaminase,aspartate transaminase; spleen,7.1 ± 1.3^ab mg pyr/min/mg protein × 10^−4
same,Alanine transaminase,alanine transaminase; kidney,5.4 ± 0.5^a mg pyr/min/mg protein × 10^−4
same,Alanine transaminase,alanine transaminase; liver,14.1 ± 2.80^a mg pyr/min/mg protein × 10^−4
same,Alanine transaminase,alanine transaminase; spleen,10.7 ± 1.8^ab mg pyr/min/mg protein × 10^−4
same,Specific activity of maltase from different sections of the rat intestine,maltase; Distal,14.0 ± 1.0.^A nmol maltase/min/mg protein
same,Specific activity of maltase from different sections of the rat intestine,maltase; Mid,17.1 ± 0.9^a nmol maltase/min/mg protein
same,Specific activity of maltase from different sections of the rat intestine,maltase; Upper,18.4 ± 1.2^a nmol maltase/min/mg protein
